Earlier results in US20150283066A1, “VAGINAL DANAZOL COMBINED WITH NON STEROIDAL ANTI INFLAMMATORY DRUGS (NSAIDS) COMPOSITIONS” (MEDIGLOBE LTD, priority 2011, published 2015).

Conditions: literature (University of Helsinki); stated jointly for NSAIDs and tranexamic acid

NC[C@H]1CC[C@H](C(=O)O)CC1 [tranexamic acid]
reduction of menstrual blood loss: 20-60%
